# Source: ChEMBL document CHEMBL1154065, “Discovery of novel P3 sulfonamide-capped inhibitors of HCV NS3 protease. Inhibitors with improved cellular potencies” (Bioorg Med Chem, 2009)
# What was measured:
# [1] = Inhibition of HCV NS3 protease by continuous spectrophotometric assay; parameters: species or system Hepacivirus hominis
# Hepatitis C virus [2] = assay: Antiviral activity against Hepatitis C virus infected in human hepatoma cell by replicon assay; format: functional, Hepacivirus hominis
# Rattus norvegicus = assay: AUC (0 to 6 hrs) in po dosed rat; format: ADME, organism-based, Plasma; parameters: time < 6 hr, route oral; details: in vivo
# Hepatitis C virus [3] = assay: Ratio of boceprevir EC90 to compound EC90 for Hepatitis C virus infected in human hepatoma cell; format: functional, Hepacivirus hominis
# [4] = AUC (0 to 6 hrs) in rat at 10 mg/kg, po; format: ADME, organism-based; parameters: time < 6 hr, dose 10 mg/kg, route oral; details: plasma
# [5] = AUC (0 to 6 hrs) in monkey at 3 mg/kg, po; format: ADME, organism-based, Macaca mulatta; parameters: time < 6 hr, dose 3 mg/kg, route oral; details: rhesus monkey, plasma
# [6] = Selectivity for HCV NS3 protease over human neutrophil elastase
Ki [1] [nM],EC90 (Hepatitis C virus [2]) [nM],AUC (Rattus norvegicus) [µM·h],AUC(0-t) at 6 h [4] [µM·h],AUC(0-t) at 6 h [5] [µM·h],Selectivity ratio [6],SMILES,Ratio (Hepatitis C virus [3])
31,2000,,,,,CC(C)[C@@H](CNS(C)(=O)=O)NC(=O)N[C@H](C(=O)N1C[C@H]2[C@@H]([C@H]1C(=O)NC(CC1CCC1)C(=O)C(N)=O)C2(C)C)C(C)(C)C (some centres undefined),
14,180,1.02,,,,C=CCNC(=O)C(=O)C(CCC)NC(=O)[C@@H]1[C@@H]2[C@H](CN1C(=O)[C@@H](NC(=O)N[C@H](CN(C)S(=O)(=O)c1ccccn1)C(C)(C)C)C(C)(C)C)C2(C)C (some centres undefined),
10,260,1.38,,,,C=CCNC(=O)C(=O)C(CCC)NC(=O)[C@@H]1[C@@H]2[C@H](CN1C(=O)[C@@H](NC(=O)N[C@H](CN(C)S(=O)(=O)c1cccs1)C(C)(C)C)C(C)(C)C)C2(C)C (some centres undefined),
12,400,,,,,CN(CC1(NC(=O)N[C@H](C(=O)N2C[C@H]3[C@@H]([C@H]2C(=O)NC(CC2CCC2)C(=O)C(N)=O)C3(C)C)C(C)(C)C)CCCCC1)S(=O)(=O)c1ccccc1 (some centres undefined),
11,100,,,,,C=CCNC(=O)C(=O)C(CCC)NC(=O)[C@@H]1[C@@H]2[C@H](CN1C(=O)[C@@H](NC(=O)N[C@H](CN(C)S(=O)(=O)N(C)C)C(C)(C)C)C1Cc3ccccc3C1)C2(C)C (some centres undefined),
6,60,,1.2,0.69,,C=CCNC(=O)C(=O)C(CCCC)NC(=O)[C@@H]1[C@@H]2[C@H](CN1C(=O)[C@@H](NC(=O)N[C@H](CN(C)S(=O)(=O)CC)C(C)(C)C)C1Cc3ccccc3C1)C2(C)C (some centres undefined),5
10,550,,,,,CC(C)[C@@H](CNS(=O)(=O)c1ccccc1)NC(=O)N[C@H](C(=O)N1C[C@H]2[C@@H]([C@H]1C(=O)NC(CC1CC1)C(=O)C(N)=O)C2(C)C)C(C)(C)C (some centres undefined),
6,200,,,,,CC(C)[C@H](NC(=O)N[C@H](C(=O)N1C[C@H]2[C@@H]([C@H]1C(=O)NC(CC1CC1)C(=O)C(N)=O)C2(C)C)C(C)(C)C)C(=O)OC(C)(C)C (some centres undefined),
12,100,,,,,CC(C)[C@@H](CN(C)S(=O)(=O)c1cccs1)NC(=O)N[C@H](C(=O)N1C[C@H]2[C@@H]([C@H]1C(=O)NC(CC1CCC1)C(=O)C(N)=O)C2(C)C)C(C)(C)C (some centres undefined),
6,80,,1.74,,,C=CCNC(=O)C(=O)C(CCCC)NC(=O)[C@@H]1[C@@H]2[C@H](CN1C(=O)[C@@H](NC(=O)N[C@H](CN(C)S(=O)(=O)N(C)C)C(C)(C)C)C1CCCCC1)C2(C)C (some centres undefined),
8,130,,,,,CC(C)[C@@H](CN(C)S(=O)(=O)c1ccccc1)NC(=O)N[C@H](C(=O)N1C[C@H]2[C@@H]([C@H]1C(=O)NC(CC1CC1)C(=O)C(N)=O)C2(C)C)C(C)(C)C (some centres undefined),
14,350,,,,2200,CC(C)(C)NC(=O)N[C@H](C(=O)N1C[C@H]2[C@@H]([C@H]1C(=O)NC(CC1CCC1)C(=O)C(N)=O)C2(C)C)C(C)(C)C (some centres undefined) [BOCEPREVIR],
5,75,,,,,CN(C[C@@H](NC(=O)N[C@H](C(=O)N1C[C@H]2[C@@H]([C@H]1C(=O)NC(CC1CCC1)C(=O)C(N)=O)C2(C)C)C(C)(C)C)C(C)(C)C)S(=O)(=O)c1ccccc1 (some centres undefined),
4,150,,,,,CCS(=O)(=O)N(C)C[C@@H](NC(=O)N[C@H](C(=O)N1C[C@H]2[C@@H]([C@H]1C(=O)NC(CC1CCC1)C(=O)C(N)=O)C2(C)C)C(C)(C)C)C(C)(C)C (some centres undefined),
6,100,,,,,C=CCNC(=O)C(=O)C(CCC)NC(=O)[C@@H]1[C@@H]2[C@H](CN1C(=O)[C@@H](NC(=O)N[C@H](CN(C)S(=O)(=O)CC)C(C)(C)C)C1Cc3ccccc3C1)C2(C)C (some centres undefined),
13,250,,,,,CC[C@H](C)[C@@H](CN(C)S(=O)(=O)c1ccccc1)NC(=O)N[C@H](C(=O)N1C[C@H]2[C@@H]([C@H]1C(=O)NC(CC1CCC1)C(=O)C(N)=O)C2(C)C)C(C)(C)C (some centres undefined),
4,60,0.11,,,,CN(C[C@@H](NC(=O)N[C@H](C(=O)N1C[C@H]2[C@@H]([C@H]1C(=O)NC(CC1CCC1)C(=O)C(N)=O)C2(C)C)C(C)(C)C)C(C)(C)C)S(=O)(=O)c1cccs1 (some centres undefined),
13,,,,,,CC(C)(C)[C@H](NC(=O)N[C@H](CNS(=O)(=O)c1ccccc1)C(C)(C)C)C(=O)N1C[C@H]2[C@@H]([C@H]1C(=O)NC(CC1CCC1)C(=O)C(N)=O)C2(C)C (some centres undefined),
10,150,0.34,,,,C=CCNC(=O)C(=O)C(CCC)NC(=O)[C@@H]1[C@@H]2[C@H](CN1C(=O)[C@@H](NC(=O)N[C@H](CN(C)S(=O)(=O)CC)C(C)(C)C)C(C)(C)C)C2(C)C (some centres undefined),
5,90,0.09,,,,CN(C[C@@H](NC(=O)N[C@H](C(=O)N1C[C@H]2[C@@H]([C@H]1C(=O)NC(CC1CCC1)C(=O)C(N)=O)C2(C)C)C(C)(C)C)C(C)(C)C)S(=O)(=O)C1CC1 (some centres undefined),
4,350,,,,,CC(C)[C@@H](CN(C)S(C)(=O)=O)NC(=O)N[C@H](C(=O)N1C[C@H]2[C@@H]([C@H]1C(=O)NC(CC1CCC1)C(=O)C(N)=O)C2(C)C)C(C)(C)C (some centres undefined),
8,140,,,,3100,"CC(C)C(CN(C)S(=O)(=O)c1ccccc1)NC(=O)N[C@H](C(=O)N1C[C@H]2[C@@H]([C@H]1C(=O)NC(CC1CCC1)C(=O)C(N)=O)C2(C)C)C(C)(C)C (single isomer, unassigned)",
80,,,,,,CC(C)C[C@@](C)(CN(C)S(=O)(=O)c1ccccc1)NC(=O)N[C@H](C(=O)N1C[C@H]2[C@@H]([C@H]1C(=O)NC(CC1CCC1)C(=O)C(N)=O)C2(C)C)C(C)(C)C (some centres undefined),
6,130,,,,680,CC(C)[C@H](CN(C)S(=O)(=O)c1ccccc1)NC(=O)N[C@H](C(=O)N1C[C@H]2[C@@H]([C@H]1C(=O)NC(CC1CC1)C(=O)C(N)=O)C2(C)C)C(C)(C)C (some centres undefined),
5,150,0.06,,,,CN(C[C@@H](NC(=O)N[C@H](C(=O)N1C[C@H]2[C@@H]([C@H]1C(=O)NC(CC1CCC1)C(=O)C(N)=O)C2(C)C)C(C)(C)C)C(C)(C)C)S(C)(=O)=O (some centres undefined),2
23,600,,,,,CC(C)[C@@H](CNS(=O)(=O)c1cccs1)NC(=O)N[C@H](C(=O)N1C[C@H]2[C@@H]([C@H]1C(=O)NC(CC1CCC1)C(=O)C(N)=O)C2(C)C)C(C)(C)C (some centres undefined),
